Values quoted from earlier work in patent US20060211660A1, “Combination therapy for topical application in the treatment of dry eye syndrome” (priority 2005, published 2006).
Where two headings read alike, the source gives them in different places.

Legend:
[1] = for androgenic (virilizing) activity relative to standards: relative to standards (typically testosterone)
[2] = for anabolic activity relative to standards: relative to standards (typically testosterone)

Compound	androgenic (virilizing) activity relative to standards [1]	anabolic activity relative to standards [2]	further results
C[C@]12CC[C@@H]3c4ccc(O)cc4CC[C@H]3[C@@H]1CC[C@@H]2O [17-β-estradiol]			improvement in corneal lens transmittance and autofluorescence (0.00025% drops every 6 hours, women already taking 2 mg estriol valerate daily by mouth): varying or marginal improvement
CCC(=O)O[C@H]1CC[C@H]2[C@@H]3CCC4=CC(=O)CC[C@@H]4[C@H]3CC[C@]12C [19-nortestosterone propionate]	decreased	unchanged	
C[C@]12CCC(=O)C[C@@H]1CC[C@@H]1[C@@H]2CC[C@]2(C)[C@@H](O)CC[C@@H]12 [dihydrotestosterone]	unchanged	enhanced	
C[C@]12CC[C@@H]3c4ccc(O)cc4CC[C@H]3[C@@H]1C[C@@H](O)[C@@H]2O [estriol]			improvement in corneal lens transmittance and autofluorescence (post-menopausal patients, low systemic dose 0.25 mg per day): varying or marginal improvement
C[C@]1(O)CC[C@H]2[C@@H]3CCC4=CC(=O)CC[C@]4(C)[C@@]3(F)[C@@H](O)C[C@@]21C [fluoxymesterone]	augmented		
C[C@]12COC(=O)C[C@@H]1CC[C@@H]1[C@@H]2CC[C@@]2(C)[C@H]1CC[C@]2(C)O [oxandrolone, 17 alpha-methyl-17β-hydroxy-2-oxa-5 alpha-androstan-3-one]	decreased	increased	androgenic activity, percent of that of methyltestosterone ([1]; relative to methyltestosterone): 24%; anabolic activity, percent of that of methyltestosterone ([2]; relative to methyltestosterone): 322%
C[C@]12C/C(=C/O)C(=O)C[C@@H]1CC[C@@H]1[C@@H]2CC[C@@]2(C)[C@H]1CC[C@]2(C)O [oxymetholone]	unchanged	enhanced	
C[C@]12Cc3c[nH]nc3C[C@@H]1CC[C@@H]1[C@@H]2CC[C@@]2(C)[C@H]1CC[C@]2(C)O [stanozolol]	decreased	increased	
